Like-named read-outs stand apart in the source and are kept apart here.
Key:
GPIIb/IIIa = GPIIb/IIIa (Homo sapiens, UniProt P05106+P08514); test: In vitro solid phase purified glycoprotein IIb/IIIa binding assay (biotinylated fibrinogen)
Procedure: (§1) In vitro Solid Phase Purified αvβ3 Binding Assay The vitronectin/αvβ3 binding assay methods were derived from Mehta et al. (Biochem J. 1998, 330, 861). Human αvβ3 (Chemicon International Inc., Temecula, Calif.), at a concentration of 1 μg/ml dissolved in Tris buffer (20 mM Tris, 1 mM CaCl2, 1 mM MgCl2, 10 μM MnCl2, 150 mM NaCl), was immobilized on Immulon 96 well plates (Dynex Technologies, Chantilly, Va.) overnight at 4° C. Plates were washed and treated with blocking buffer (3% BSA in Tris buffer) for 2 h at 37 C. Plates were then rinsed 2 times in Tris buffer containing 0.3% BSA and 0.2% Tween20 (polyoxyethylenesorbitan monolaurate). Five minutes prior to the addition of 5 nM vitronectin (Sigma, St. Louis, Mo.), compounds of the invention were added to wells in duplicate. Each plate included c-RGDfV as an internal control. Following a 3 hour incubation at 37° C., plates were washed 5 times in assay buffer. An anti-human vitronectin IgG rabbit polyclonal antibody (Calbiochem, San Diego, Calif.) was added (1:2000) and plates were incubated for 1 hour at room temperature. VectaStain ABC peroxidase kit reagents (Vector Laboratories, Burlingame, Calif.) employing a biotin labeled anti-rabbit IgG, were utilized for detection of bound antibody. Plates were read at 490 nm on a Molecular Devices (Sunnyvale, Calif.) microplate reader. […] The plate was covered and incubated overnight at 4° C. The GPIIb/IIIa solution was discarded and 150 μl of 5% BSA was added and incubated at RT for 1–3 h. The plate was washed extensively with modified Tyrodes buffer. Biotinylated fibrinogen (25 μl/well) at 2× final concentration was added to the wells that contain the test compounds (25 μl/well). The plate was covered and incubated at RT for 2–4 h. Twenty minutes prior to incubation completion, one drop of Reagent A (VectaStain ABC Horse Radish Peroxidase kit, Vector Laboratories, Inc.) and one drop Reagent B were added with mixing to 5 mL modified Tyrodes buffer mix and let stand. The ligand solution was discarded and the plate washed (5×200 μl/well) with modified Tyrodes buffer. Vecta Stain HRP-Biotin-Avidin reagent (50 μl/well, as prepared above) was added and incubated at RT for 15 min. The Vecta Stain solution was discarded and the wells washed (5×200 μl/well) with modified Tyrodes buffer. Developing buffer (10 mL of 50 mM citrate/phosphate buffer @ pH 5.3, 6 mg o-phenylenediamine, 6 μl 30% H2O2; 50 μl/well) was added and incubated at rt for 3–5 min, and then 2 N H2SO4 (50 μl/well) was added. The absorbance was read at 490 nm.

Human αvβ3 = biological target: T1, Human αvβ3 (Homo sapiens, UniProt P05106+P06756); test: In vitro solid phase purified αvβ3 binding assay (vitronectin/αvβ3)
T1 construct: purchased Chemicon International Inc., Temecula, Calif
T1 sequence (P06756 31-889 limits assumed): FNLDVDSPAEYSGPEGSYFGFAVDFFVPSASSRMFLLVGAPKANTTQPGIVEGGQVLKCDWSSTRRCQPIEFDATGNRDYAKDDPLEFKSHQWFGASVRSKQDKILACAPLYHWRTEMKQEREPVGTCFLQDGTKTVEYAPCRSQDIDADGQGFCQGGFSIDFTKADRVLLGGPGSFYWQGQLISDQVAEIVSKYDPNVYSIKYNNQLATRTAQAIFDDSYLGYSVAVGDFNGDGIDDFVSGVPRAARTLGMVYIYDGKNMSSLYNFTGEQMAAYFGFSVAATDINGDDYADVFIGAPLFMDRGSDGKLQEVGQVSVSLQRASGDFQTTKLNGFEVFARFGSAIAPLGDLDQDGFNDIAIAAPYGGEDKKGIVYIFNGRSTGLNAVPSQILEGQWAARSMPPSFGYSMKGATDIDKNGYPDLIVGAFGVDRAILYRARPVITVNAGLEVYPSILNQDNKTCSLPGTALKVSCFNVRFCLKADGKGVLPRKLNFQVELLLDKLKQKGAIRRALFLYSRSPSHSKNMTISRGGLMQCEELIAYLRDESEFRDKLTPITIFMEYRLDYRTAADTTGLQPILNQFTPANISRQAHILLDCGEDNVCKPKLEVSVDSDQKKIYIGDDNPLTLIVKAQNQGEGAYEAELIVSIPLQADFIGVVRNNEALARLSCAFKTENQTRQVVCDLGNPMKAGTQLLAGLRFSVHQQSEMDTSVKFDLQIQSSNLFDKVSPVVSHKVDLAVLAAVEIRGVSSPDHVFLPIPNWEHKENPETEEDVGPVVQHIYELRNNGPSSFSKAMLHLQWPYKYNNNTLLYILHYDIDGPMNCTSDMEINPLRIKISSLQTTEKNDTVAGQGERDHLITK
T1 sequence (P06756 891-1048 partner limits assumed): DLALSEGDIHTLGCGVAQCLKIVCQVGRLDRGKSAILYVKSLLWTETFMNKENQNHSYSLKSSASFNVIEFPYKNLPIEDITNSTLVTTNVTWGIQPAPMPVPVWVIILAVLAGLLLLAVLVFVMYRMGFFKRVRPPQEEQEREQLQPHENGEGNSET
T1 sequence (P05106 27-788): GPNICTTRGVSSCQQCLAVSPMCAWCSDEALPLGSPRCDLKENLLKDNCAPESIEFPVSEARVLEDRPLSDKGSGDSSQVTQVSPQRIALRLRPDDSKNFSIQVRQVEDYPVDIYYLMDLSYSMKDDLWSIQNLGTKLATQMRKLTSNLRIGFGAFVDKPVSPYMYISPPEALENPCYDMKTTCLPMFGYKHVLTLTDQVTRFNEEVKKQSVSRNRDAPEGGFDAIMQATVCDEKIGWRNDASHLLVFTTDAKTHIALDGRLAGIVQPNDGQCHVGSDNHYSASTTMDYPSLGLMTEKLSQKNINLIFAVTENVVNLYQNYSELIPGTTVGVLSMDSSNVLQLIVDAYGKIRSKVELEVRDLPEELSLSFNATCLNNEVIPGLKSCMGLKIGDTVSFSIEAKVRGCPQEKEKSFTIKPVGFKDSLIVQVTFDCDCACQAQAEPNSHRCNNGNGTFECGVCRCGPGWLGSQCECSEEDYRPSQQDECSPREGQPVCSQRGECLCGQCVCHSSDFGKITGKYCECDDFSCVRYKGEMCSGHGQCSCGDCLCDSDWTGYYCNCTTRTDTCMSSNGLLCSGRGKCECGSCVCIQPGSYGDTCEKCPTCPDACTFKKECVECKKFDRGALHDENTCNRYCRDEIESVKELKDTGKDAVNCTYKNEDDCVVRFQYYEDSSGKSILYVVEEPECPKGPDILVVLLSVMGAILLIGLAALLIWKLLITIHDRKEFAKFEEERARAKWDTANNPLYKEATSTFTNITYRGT
Procedure: as §1

[1] = RGD-affinity purified GPIIb/IIIa, biotinylated fibrinogen, read-out: GPIIb/IIIa Binding IC50
[2] = isolated human αvβ3, 5 nM vitronectin, read-out: αvβ3 Binding IC50

Chain of GPIIb/IIIa (P08514 32-887 limits assumed): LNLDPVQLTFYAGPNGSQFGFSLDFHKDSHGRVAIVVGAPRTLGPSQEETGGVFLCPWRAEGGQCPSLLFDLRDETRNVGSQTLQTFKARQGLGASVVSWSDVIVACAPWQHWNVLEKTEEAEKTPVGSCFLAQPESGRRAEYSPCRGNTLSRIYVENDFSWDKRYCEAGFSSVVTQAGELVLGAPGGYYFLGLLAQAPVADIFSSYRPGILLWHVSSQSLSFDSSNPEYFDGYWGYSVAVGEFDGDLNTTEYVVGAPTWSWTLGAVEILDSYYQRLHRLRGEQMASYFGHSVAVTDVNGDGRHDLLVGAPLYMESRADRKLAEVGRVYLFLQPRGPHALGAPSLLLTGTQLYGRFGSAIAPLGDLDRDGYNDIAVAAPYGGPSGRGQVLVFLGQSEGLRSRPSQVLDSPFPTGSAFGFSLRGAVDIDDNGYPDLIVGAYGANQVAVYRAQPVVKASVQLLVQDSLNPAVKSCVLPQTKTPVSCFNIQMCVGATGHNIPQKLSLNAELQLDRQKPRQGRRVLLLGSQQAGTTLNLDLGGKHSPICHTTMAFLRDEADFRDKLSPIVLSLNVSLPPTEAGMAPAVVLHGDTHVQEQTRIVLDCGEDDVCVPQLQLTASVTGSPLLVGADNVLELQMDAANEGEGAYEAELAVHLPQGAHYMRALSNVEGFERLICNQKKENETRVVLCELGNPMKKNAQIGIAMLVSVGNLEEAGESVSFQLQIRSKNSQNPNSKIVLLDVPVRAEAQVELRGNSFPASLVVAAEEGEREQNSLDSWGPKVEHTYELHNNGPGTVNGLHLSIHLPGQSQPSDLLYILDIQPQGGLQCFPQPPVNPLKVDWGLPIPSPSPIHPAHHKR
Chain of GPIIb/IIIa (P08514 891-1039 partner limits assumed): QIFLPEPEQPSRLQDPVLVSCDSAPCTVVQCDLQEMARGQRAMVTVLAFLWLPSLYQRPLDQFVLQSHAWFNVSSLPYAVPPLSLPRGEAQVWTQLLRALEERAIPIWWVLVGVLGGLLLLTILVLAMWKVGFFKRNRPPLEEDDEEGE
Chain of GPIIb/IIIa (P05106 27-788): as the sequence (P05106 27-788) above

SMILES | IC50 (GPIIb/IIIa; [1]) [µM] | IC50 (Human αvβ3; [2]) [nM] | IC50 (GPIIb/IIIa) [µM] | IC50 (Human αvβ3) [nM]
COc1ccc(S(=O)(=O)N[C@@H](Cc2nc3ccc(/C=C/CNc4ccccn4)cc3c(=O)[nH]2)C(=O)O)cc1OC [Compound 33, α-[[(3,4-dimethoxyphenyl)sulfonyl]amino]-(αS)-3,4-dihydro-4-oxo-6-[(1E)-3-(2-pyridinylamino)-1-propenyl]-2-quinazolinepropanoic acid] | 1.1 | 13 | – | –
O=C(NC/C=C/c1ccc2nc(C[C@H](NS(=O)(=O)c3cccs3)C(=O)O)[nH]c(=O)c2c1)NCc1ccccc1 [Compound 72, (αS)-3,4-dihydro-4-oxo-6-[(1E)-3-[[[(phenylmethyl)amino]carbonyl]amino]-1-propenyl]-α-[(2-thienylsulfonyl)amino]-2-quinazolinepropanoic acid] | 17 | 1300 | – | –
C/C(=C\NC(=O)NC1CCCCC1)c1ccc2nc(C[C@H](NS(=O)(=O)c3c(C)c(C)c(C)c(C)c3C)C(=O)O)[nH]c(=O)c2c1 [Compound 79, 6-[(E)-2-[[(cyclohexylamino)carbonyl]amino]-1-methylethenyl]-(αS)-3,4-dihydro-4-oxo-α-[[(2,3,4,5,6-pentamethylphenyl)sulfonyl]amino]-2-quinazolinepropanoic acid] | 7.3 | > 500 | – | –
Cc1ccnc(NC/C=C/c2ccc3nc(C[C@H](NC(=O)OCc4ccccc4)C(=O)O)[nH]c(=O)c3c2)c1 [Compound 69, (αS)-3,4-dihydro-6-[(1E)-3-[(4-methyl-2-pyridinyl)amino]-1-propenyl]-4-oxo-α-[[(phenylmethoxy)carbonyl]amino]-2-quinazolinepropanoic acid] | 18 | 490 | – | –
COc1cc(C)c(S(=O)(=O)N[C@@H](Cc2nc3ccc(/C=C/CNC(=O)NCc4ccccc4)cc3c(=O)[nH]2)C(=O)O)c(C)c1C [Compound 56, (αS)-3,4-dihydro-α-[[(4-methoxy-2,3,6-trimethylphenyl)sulfonyl]amino]-4-oxo-6-[(1E)-3-[[[(phenylmethyl)amino]carbonyl]amino]-1-propenyl]-2-quinazolinepropanoic acid] | 3.9 | 32 | – | –
COc1ccc(OC(=O)N[C@@H](Cc2nc3ccc(/C=C/CNC(=O)NCc4ccccc4)cc3c(=O)[nH]2)C(=O)O)cc1 [Compound 77, (αS)-3,4-dihydro-α-[[(4-methoxyphenoxy)carbonyl]amino]-4-oxo-6-[(1E)-3-[[[(phenylmethyl)amino]carbonyl]amino]-1-propenyl]-2-quinazolinepropanoic acid] | – | – | 46 | > 500
COc1ccc(OC(=O)N[C@@H](Cc2nc3ccc(/C=C/CNC4=NCCN4)cc3c(=O)[nH]2)C(=O)O)cc1 [Compound 63, 6-[(1E)-3-[(4,5-dihydro-1H-imidazol-2-yl)amino]-1-propenyl]-(αS)-3,4-dihydro-α-[[(4-methoxyphenoxy)carbonyl]amino]-4-oxo-2-quinazolinepropanoic acid] | – | – | 0.95 | 100
Cc1c(C)c(C)c(S(=O)(=O)N[C@@H](Cc2nc3ccc(/C=C/CNc4nccn4C)cc3c(=O)[nH]2)C(=O)O)c(C)c1C [Compound 30, (αS)-3,4-dihydro-6-[(1E)-3-[(1-methyl-1H-imidazol-2-yl)amino]-1-propenyl]-4-oxo-α-[[(2,3,4,5,6-pentamethylphenyl)sulfonyl]amino]-2-quinazolinepropanoic acid] | 0.083 | 200 | – | –
O=C(NC/C=C/c1ccc2nc(C[C@H](NS(=O)(=O)Cc3ccccc3)C(=O)O)[nH]c(=O)c2c1)NCc1ccccc1 [Compound 70, (αS)-3,4-dihydro-4-oxo-6-[(1E)-3-[[[(phenylmethyl)amino]carbonyl]amino]-1-propenyl]-α-[[(phenylmethyl)sulfonyl]amino]-2-quinazolinepropanoic acid] | 3.2 | 550 | – | –
Cc1c(C)c(C)c(S(=O)(=O)N[C@@H](Cc2nc3ccc(/C=C/CNC4=NCCCCC4)cc3c(=O)[nH]2)C(=O)O)c(C)c1C [Compound 74, (αS)-3,4-dihydro-4-oxo-α-[[(2,3,4,5,6-pentamethylphenyl)sulfonyl]amino]-6-[(1E)-3-[(3,4,5,6-tetrahydro-2H-azepin-7-yl)amino]-1-propenyl]-2-quinazolinepropanoic acid] | 1.3 | 5400 | – | –
COc1ccc(S(=O)(=O)N[C@@H](Cc2nc3ccc(/C=C/CNC4=NCCN4)cc3c(=O)[nH]2)C(=O)O)cc1OC [Compound 48, 6-[(1E)-3-[(4,5-dihydro-1H-imidazol-2-yl)amino]-1-propenyl]-α-[[(3,4-dimethoxyphenyl)sulfonyl]amino]-(αS)-3,4-dihydro-4-oxo-2-quinazolinepropanoic acid] | 0.064 | 11 | – | –
COc1ccc(S(=O)(=O)N[C@@H](Cc2nc3ccc(/C=C/CNC4=NCCC4)cc3c(=O)[nH]2)C(=O)O)cc1OC [Compound 55, 6-[(1E)-3-[(3,4-dihydro-2H-pyrrol-5-yl)amino]-1-propenyl]-α-[[(3,4-dimethoxyphenyl)sulfonyl]amino]-(αS)-3,4-dihydro-4-oxo-2-quinazolinepropanoic acid] | 0.27 | 42 | – | –
CN(C)c1cccc2c(S(=O)(=O)N[C@@H](Cc3nc4ccc(/C=C/CNC5=NCCN5)cc4c(=O)[nH]3)C(=O)O)cccc12 [Compound 22, 6-[(1E)-3-[(4,5-dihydro-1H-imidazol-2-yl)amino]-1-propenyl]-α-[[[5-(dimethylamino)-1-naphthalenyl]sulfonyl]amino]-(αS)-3,4-dihydro-4-oxo-2-quinazolinepropanoic acid] | 1.2 | > 500 | – | –
O=C(O)[C@H](Cc1nc2ccc(/C=C/CNC3=NCCN3)cc2c(=O)[nH]1)NS(=O)(=O)c1cccc2cccnc12 [Compound 4, 6-[(1E)-3-[(4,5-dihydro-1H-imidazol-2-yl)amino]-1-propenyl]-(αS)-3,4-dihydro-4-oxo-α-[(8-quinolinylsulfonyl)amino]-2-quinazolinepropanoic Acid] | 0.32 | 14 | – | –
COc1cccc([C@@H](CC(=O)O)c2nc3ccc(/C=C/CNc4ccccn4)cc3c(=O)n2C)c1 [Compound 18, (βR)-3,4-dihydro-β-(3-methoxyphenyl)-3-methyl-4-oxo-6-[(1E)-3-(2-pyridinylamino)-1-propenyl]-2-quinazolinepropanoic Acid] | > 50 | 18000 | – | –
O=C(Nc1ccccc1)N[C@@H](Cc1nc2ccc(/C=C/CNc3ccccn3)cc2c(=O)[nH]1)C(=O)O [Compound 12, (αS)-3,4-dihydro-4-oxo-α-[[(phenylamino)carbonyl]amino]-6-[(E)-3-(2-pyridinylamino)-1-propenyl]-2-quinazolinepropanoic Acid] | 18 | > 500 | – | –
Cc1c(C)c(C)c(S(=O)(=O)N[C@@H](Cc2nc3ccc(/C=C/CNC(=O)NC(C)C)cc3c(=O)[nH]2)C(=O)O)c(C)c1C [Compound 58, (αS)-3,4-dihydro-6-[(1E)-3-[[[(1-methylethyl)amino]carbonyl]amino]-1-propenyl]-4-oxo-α-[[(2,3,4,5,6-pentamethylphenyl)sulfonyl]amino]-2-quinazolinepropanoic acid] | 2.5 | 44 | – | –
Cc1nn(C)c(Cl)c1S(=O)(=O)N[C@@H](Cc1nc2ccc(/C=C/CNC(=O)NCc3ccccc3)cc2c(=O)[nH]1)C(=O)O [Compound 65, α-[[(5-chloro-1,3-dimethyl-1H-pyrazol-4-yl)sulfonyl]amino]-(αS)-3,4-dihydro-4-oxo-6-[(1E)-3-[[[(phenylmethyl)amino]carbonyl]amino]-1-propenyl]-2-quinazolinepropanoic acid] | 4.1 | 160 | – | –
CCCCNC(=O)NC/C=C/c1ccc2nc(C[C@H](NS(=O)(=O)c3c(C)c(C)c(C)c(C)c3C)C(=O)O)[nH]c(=O)c2c1 [Compound 51, 6-[(1E)-3-[[(butylamino)carbonyl]amino]-1-propenyl]-(αS)-3,4-dihydro-4-oxo-α-[[(2,3,4,5,6-pentamethylphenyl)sulfonyl]amino]-2-quinazolinepropanoic acid] | 4.8 | 17 | – | –
